Experimental data reported in patent publication US20160296529A1, “AMINOTRIAZOLOPYRIDINE FOR USE IN THE TREATMENT OF INFLAMMATION, AND PHARMACEUTICAL COMPOSITIONS THEREOF” (priority 2012, published 2016).
Blank lines part the entries; values can stand above or below the molecule they belong to.

Experiments:
[1] = Repeated dose pharmacokinetics in human; format: in vivo; conditions: for Ratio I/II (AUC Formula I : AUC Formula II) / AUC: human, steady state; for half-life at 10 days: oral, human plasma, repeated dose of Formula II (25-100 mg BID or 200-450 mg QD) for 10 days, read-out: mean apparent terminal elimination half-life; for AUC: plasma, po, read-out: Exposure (expressed as AUC)
Experimental: Subjects received repeated dose (25, 50 and 100 mg BID or 200, 300 and 450 mg QD) of the compound according to Formula II as capsules after a standard breakfast for 10 days.
Serial blood samples were collected over 12 h (BID regimen) or 24 h (QD regimen) on day 1 and 10 to determine plasma concentrations of the compounds according to Formula II and Formula I using a validated liquid chromatography-mass spectrometry/mass spectrometry (LC-MS/MS) method with a limit of quantification of 1.00 ng/mL for both Formula. PK parameters were assessed using a statistical analysis package (WinNonLin (Pharsight, Sunnyvale, Calif.: CA 94086, USA).
Mean plasma concentration-time profiles of the compound according to Formula II and the compound according to Formula I were measured.
In order to show the comparative exposures of the two compounds, the AUC of the compounds according to Formula I and the compound according to Formula II were calculated. The AUC value represents the steady state exposure of the compounds after repeated dosing. The ratio of AUC of the compound according to Formula I:AUC of the compound according to Formula II is display in Table VII.

[2] = Single dose pharmacokinetics in animals, dog; format: in vivo, Beagle dogs
Experimental: Pharmacokinetic studies were performed in various animal species dosed with the compound according to Formula II to determine the exposure to the compound according to Formula I as well as its apparent terminal half life (T1/2), when possible.
Sprague-Dawley rats (male, 200-250 g), CD1 mice (male, 25-30 g), Beagle dogs (male, 9-10 kg), Göttingen minipigs (male, 10-15 kg) and New Zealand White rabbits (male, 3-5 kg) were acclimatized for at least 7 days before treatment and were kept on a 12 hr light/dark cycle (07 h00-19 h00).
Temperature was maintained at approximately 22° C., and food and water were provided ad libitum. […]
The compound according to Formula II was formulated in 0.5% methylcellulose and dosed orally to 3 animals (or 3 mouse/time points) as a single esophageal gavage at dose ranging from 15 to 45 mg/kg under a dosing volume of 5 or 10 mL/kg.
Blood samples were collected over a 24-h period via the jugular vein (dog, minipig), ear blood vessel (rabbit), cardiac puncture (mouse) or retro-orbital sinus (rat) with lithium heparin as anti-coagulant. Whole blood samples were centrifuged and the resulting plasma samples were stored at −20° C. pending analysis.
Plasma concentrations of the compound according to Formula I and of the compound according to Formula II were determined by an LC-MS/MS method with a limit of quantification ≦10.0 ng/mL for both Formula I and Formula II for all species.
Pharmacokinetic parameters were calculated using a statistical analysis package (WinNonLin (Pharsight, Sunnyvale, Calif.: CA 94086, USA).

rat CIA model = experiment: CIA model 1 (rat collagen induced arthritis, clinical score); format: in vivo, Dark Agouti rats; set-up: key to Rat CIA Clinical Score: sum of 4 paws, each 0 = no symptoms to 4 = maximal; max 16; conditions: for activity in the CIA rat model: dosed alone
Experimental: Complete Freund's adjuvant (CFA) and Incomplete Freund's adjuvant (IFA) were purchased from Difco. Bovine collagen type II (CII), lipopolysaccharide (LPS), and Enbrel® was obtained from Chondrex (Isle d'Abeau, France); Sigma (P4252, L'Isle d'Abeau, France), Whyett (25 mg injectable syringe, France), Acros Organics (Palo Alto, Calif.), respectively. All other reagents used were of reagent grade and all solvents were of analytical grade.
Dark Agouti rats (male, 7-8 weeks old) were obtained from Harlan Laboratories (Melderslo, Netherlands). Rats were kept on a 12 hr light/dark cycle (0700-1900). Temperature was maintained at 22° C., and food and water were provided ad libitum.
One day before the experiment, CII solution (2 mg/mL) was prepared with 0.05 M acetic acid and stored at 4° C. Just before the immunization, equal volumes of adjuvant (IFA) and CII were mixed by a homogenizer in a pre-cooled glass bottle in an ice water bath. Extra adjuvant and prolonged homogenization may be required if an emulsion was not formed. 0.2 mL of the emulsion was injected intradermally at the base of the tail of each rat on day 1, a second booster intradermal injection (CII solution at 2 mg/mL in CFA 0.1 mL saline) was performed on day 9. This immunization method was modified from published methods (Sims et al, 2004; Jou et al., 2005).
The therapeutic effects of the compounds were tested in the rat CIA model. Rats were randomly divided into equal groups and each group contained 10 rats. All rats were immunized on day 1 and boosted on day 9. Therapeutic dosing lasts from day 16 to day 30. The negative control group was treated with vehicle (MC 0.5%) and the positive control group with Enbrel® (10 mg/kg, 3× week., s.c.). A compound of interest was typically tested at 3 doses, e.g. 6, 10, 60 mg/kg, q.d., p.o.
Arthritis was scored according to the method of Khachigian 2006, Lin et al 2007 and Nishida et al. 2004). The swelling of each of the four paws was ranked with the arthritic score as follows: 0—no symptoms; 1—mild, but definite redness and swelling of one type of joint such as the ankle or wrist, or apparent redness and swelling limited to individual digits, regardless of the number of affected digits; 2—moderate redness and swelling of two or more types of joints; 3—severe redness and swelling of the entire paw including digits; 4—maximally inflamed limb with involvement of multiple joints (maximum cumulative clinical arthritis score 16 per animal) (Nishida et al., 2004).
To permit the meta-analysis of multiple studies the clinical score values were normalised as follows:
AUC of clinical score (AUC score): The area under the curve (AUC) from day 1 to day 14 was calculated for each individual rat. The AUC of each animal was divided by the average AUC obtained for the vehicle in the study from which the data on that animal was obtained and multiplied by 100 (i.e. the AUC was expressed as a percentage of the average vehicle AUC per study).
Clinical score increase from day 1 to day 14 (End point score): The clinical score difference for each animal was divided by the average clinical score difference obtained for the vehicle in the study from which the data on that animal was obtained and multiplied by 100 (i.e. the difference was expressed as a percentage of the average clinical score difference for the vehicle per study).

[3] = male, Beagle, plasma, after Formula II 15 mg/kg oral, read-out: exposure (expressed as AUC)

Ratio I/II (AUC Formula I : AUC Formula II) ([1]; Formula II 25 mg BID): 24.4
Ratio I/II (AUC Formula I : AUC Formula II) ([1]; Formula II 50 mg BID): 20.5
Ratio I/II (AUC Formula I : AUC Formula II) ([1]; Formula II 100 mg BID): 18.3
Ratio I/II (AUC Formula I : AUC Formula II) ([1]; Formula II 200 mg QD): 16.1
Ratio I/II (AUC Formula I : AUC Formula II) ([1]; Formula II 300 mg QD): 15.0
Ratio I/II (AUC Formula I : AUC Formula II) ([1]; Formula II 450 mg QD): 10.1
half-life at 10 days [1]: 22 to 27 h
AUC ([1]; Formula II 25 mg BID): 8660 ng·h/mL
AUC ([1]; Formula II 50 mg BID): 15200 ng·h/mL
AUC ([1]; Formula II 100 mg BID): 41100 ng·h/mL
AUC ([1]; Formula II 200 mg QD): 70000 ng·h/mL
AUC ([1]; Formula II 300 mg QD): 66100 ng·h/mL
AUC ([1]; Formula II 450 mg QD): 102000 ng·h/mL
half-life ([2]; Beagle, plasma, 10 mg/kg, male, administration of Formula I, oral, read-out: Apparent terminal half life (converted)): 9 h
AUC ([2]; Beagle, plasma, male, Formula I 10 mg/kg single oral dose, read-out: AUC): 49400 ng·h/mL
AUC ([2]; Beagle, plasma, male, Formula I 25 mg/kg single oral dose, read-out: AUC): 114000 ng·h/mL
AUC ([2]; Beagle, plasma, male, Formula I 50 mg/kg single oral dose, read-out: AUC): 290000 ng·h/mL
Ratio I/II of exposure (AUC Formula I : AUC Formula II) ([2]; after Formula II 15 mg/kg oral): 0.24
AUC [2, 3]: 10600 ng·h/mL
SMILES: Nc1nc2cccc(-c3ccc(CN4CCS(=O)(=O)CC4)cc3)n2n1 [Formula I, 5-[4-(1,1-Dioxothiomorpholin-4-ylmethyl)-phenyl]-[1,2,4]triazolo[1,5-a]pyridin-2-ylamine]
normalized clinical score values (calculated as AUC or as the difference from day 1 to day 14) (rat CIA model; 60 mg/kg): statistically significant improvements
Rat CIA Clinical Score (rat CIA model; Formula I 60 mg/kg, day 18): 2.9
Rat CIA Clinical Score (rat CIA model; Formula I 60 mg/kg, day 19): 4.4
Rat CIA Clinical Score (rat CIA model; Formula I 60 mg/kg, day 20): 5.0
Rat CIA Clinical Score (rat CIA model; Formula I 60 mg/kg, day 21): 3.9
Rat CIA Clinical Score (rat CIA model; Formula I 60 mg/kg, day 24): 4.5
Rat CIA Clinical Score (rat CIA model; Formula I 60 mg/kg, day 25): 4.3
Rat CIA Clinical Score (rat CIA model; Formula I 60 mg/kg, day 26): 3.8
Rat CIA Clinical Score (rat CIA model; Formula I 60 mg/kg, day 27): 3.7
Rat CIA Clinical Score (rat CIA model; Formula I 60 mg/kg, day 28): 3.3
activity in the CIA rat model (rat CIA model): active

half-life at 10 days [1]: 4 to 11 h
AUC ([1]; Formula II 25 mg BID): 346 ng·h/mL
AUC ([1]; Formula II 50 mg BID): 758 ng·h/mL
AUC ([1]; Formula II 100 mg BID): 2380 ng·h/mL
AUC ([1]; Formula II 200 mg QD): 4450 ng·h/mL
AUC ([1]; Formula II 300 mg QD): 4400 ng·h/mL
AUC ([1]; Formula II 450 mg QD): 10200 ng·h/mL
AUC [2, 3]: 44900 ng·h/mL
SMILES: O=C(Nc1nc2cccc(-c3ccc(CN4CCS(=O)(=O)CC4)cc3)n2n1)C1CC1 [Formula II, Cyclopropanecarboxylic acid {5-[4-(1,1-dioxo-thiomorpholin-4-ylmethyl)-phenyl]-[1,2,4]triazolo[1,5-a]pyridin-2-yl}-amide]
Rat CIA Clinical Score (rat CIA model; Formula II 6 mg/kg, day 18): 3.0
Rat CIA Clinical Score (rat CIA model; Formula II 6 mg/kg, day 19): 3.6
Rat CIA Clinical Score (rat CIA model; Formula II 6 mg/kg, day 20): 4.2
Rat CIA Clinical Score (rat CIA model; Formula II 6 mg/kg, day 21): 5.1
Rat CIA Clinical Score (rat CIA model; Formula II 6 mg/kg, day 24): 5.2
Rat CIA Clinical Score (rat CIA model; Formula II 6 mg/kg, day 25): 5.1
Rat CIA Clinical Score (rat CIA model; Formula II 6 mg/kg, day 26): 4.9
Rat CIA Clinical Score (rat CIA model; Formula II 6 mg/kg, day 27): 5.2
Rat CIA Clinical Score (rat CIA model; Formula II 6 mg/kg, day 28): 5.4
activity in the CIA rat model (rat CIA model): active
